Data from US20230085307A1, “PYRIDAZINONE COMPOUND AND HERBICIDE” (NISSAN CHEMICAL CORPORATION, priority 2019, published 2023).

Assays:
lambsquarters = test: Test Example 5: herbicidal effect by foliage application, plastic box (Table 20, symbol O); assay type: in vivo, lambsquarters (Chenopodium album); settings: foliage application, three weeks after application
In short: (§1)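 Foliar spray test: emulsion formulation diluted in water to a set application rate, sprayed onto 14-day-old plants raised in diluvial soil at 25° C to 30° C under glass. Both herbicidal effect and crop effect rated visually three weeks later.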

redroot pigweed = test: Test Example 4: herbicidal effect by soil treatment (Table 19, symbol N); assay type: in vivo, redroot pigweed (Amaranthus retroflexus)
In short: (§2)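 Herbicidal effect was rated 3 weeks after treatment, using the scoring criteria of an earlier test. The compound, formulated as an emulsion and diluted in water to a set herbicide amount, had been sprayed uniformly on soil over freshly sown seeds. Growth took place in a greenhouse at 25° C. to 30° C.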

green foxtail = test: Test Example 5: herbicidal effect by foliage application, plastic box (Table 20, symbol G); assay type: in vivo, green foxtail (Setaria viridis); settings: foliage application, three weeks after application
In short: as §1

oval-leafed pondweed [1] = test: Test Example 2: herbicidal activity, application during weed generation under submerged conditions (Table 17, symbol C); assay type: in vivo, oval-leafed pondweed (Monochoria vaginalis); settings: application during weed generation, submerged conditions
In short: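 In this pot test, flooded alluvial soil (water depth 4 cm) holds all three species sown as a mixture. Once seedlings have one to two leaves, the compound's emulsion, thinned with water to the intended dose, is poured on the water; grading follows after three weeks on the earlier criteria.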

barnyard grass = test: Test Example 5: herbicidal effect by foliage application, plastic box (Table 20, symbol H); assay type: in vivo, barnyard grass (Echinochloa crus-galli); settings: foliage application, three weeks after application
In short: as §1

persian speedwell = test: Test Example 4: herbicidal effect by soil treatment (Table 19, symbol R); assay type: in vivo, Persian speedwell (Veronica persica)
In short: as §2

false cleavers = test: Test Example 4: herbicidal effect by soil treatment (Table 19, symbol Q); assay type: in vivo, false cleavers (Galium spurium)
In short: as §2

southern crabgrass [2] = test: Test Example 5: herbicidal effect by foliage application, plastic box (Table 20, symbol F); assay type: in vivo, southern crabgrass (Digitaria ciliaris); settings: foliage application, three weeks after application
In short: as §1

windgrass [3] = test: Test Example 4: herbicidal effect by soil treatment (Table 19, symbol L); assay type: in vivo, windgrass (Apera spica-venti)
In short: as §2

Chinese sprangletop = test: Test Example 3: herbicidal effect by foliage application, Wagner pot (Table 18, symbol D); assay type: in vivo, chinese sprangletop (Leptochloa chinensis)
In short: (§3)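 Plants were sown in alluvial soil held under 0.1–0.5 cm standing water and grown 14 days in a greenhouse at 25–30 °C. An emulsifiable formulation, water-diluted to the set dose, was then sprayed onto the foliage, and effects were scored three weeks later using previously defined criteria.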

southern crabgrass [4] = test: Test Example 4: herbicidal effect by soil treatment (Table 19, symbol F); assay type: in vivo, southern crabgrass (Digitaria ciliaris)
In short: as §2

windgrass [5] = test: Test Example 5: herbicidal effect by foliage application, plastic box (Table 20, symbol L); assay type: in vivo, windgrass (Apera spica-venti); settings: foliage application, three weeks after application
In short: as §1

late watergrass = test: Test Example 1: herbicidal activity, application before weed generation under submerged conditions (Table 16, symbol A); assay type: in vivo, late watergrass (Echinochloa oryzicola)
In short: (§4)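 Emulsion formulation, water-diluted to set dose, was put onto the flooded surface (4 cm depth, alluvial soil) the same day weeds were sown and 2.5-leaf rice transplanted. After 3 weeks at 25-30 °C under glass, each species was rated 0 (≤5% kill) to 5 (≥90% kill).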

rice flat sedge = test: Test Example 3: herbicidal effect by foliage application, Wagner pot (Table 18, symbol E); assay type: in vivo, rice flat sedge (Cyperus iria)
In short: as §3

wild oat = test: Test Example 5: herbicidal effect by foliage application, plastic box (Table 20, symbol I); assay type: in vivo, wild oat (Avena fatua); settings: foliage application, three weeks after application
In short: as §1

oval-leafed pondweed [6] = test: Test Example 1: herbicidal activity, application before weed generation under submerged conditions (Table 16, symbol C); assay type: in vivo, oval-leafed pondweed (Monochoria vaginalis)
In short: as §4

Japanese bulrush = test: Test Example 1: herbicidal activity, application before weed generation under submerged conditions (Table 16, symbol B); assay type: in vivo, Japanese bulrush (Schoenoplectus juncoides)
In short: as §4

[7] = amount of applied herbicide 80 g/ha
[8] = amount of applied herbicide 320 g/ha

Row | SMILES | O: lambsquarters, herbicidal effect grade (lambsquarters; 320 g/ha) | N: redroot pigweed, herbicidal effect grade (redroot pigweed; [8]) | G: green foxtail, herbicidal effect grade (green foxtail; 320 g/ha) | herbicidal effect rating, C: oval-leafed pondweed (oval-leafed pondweed [1]; AAH 320 g/ha) | H: barnyard grass, herbicidal effect grade (barnyard grass; 320 g/ha) | R: persian speedwell, herbicidal effect grade (persian speedwell; [8]) | Q: false cleavers, herbicidal effect grade (false cleavers; [8]) | F: southern crabgrass, herbicidal effect grade (southern crabgrass [2]; 320 g/ha) | L: windgrass, herbicidal effect grade (windgrass [3]; [8]) | herbicidal effect on Chinese sprangletop (D) (Chinese sprangletop; 320 g/ha) | F: southern crabgrass, herbicidal effect grade (southern crabgrass [4]; [8]) | L: windgrass, herbicidal effect grade (windgrass [5]; 320 g/ha) | Herbicidal effect, A: late watergrass (late watergrass; [8]) | herbicidal effect on rice flat sedge (E) (rice flat sedge; 320 g/ha) | I: wild oat, herbicidal effect grade (wild oat; 320 g/ha) | Herbicidal effect, C: oval-leafed pondweed (oval-leafed pondweed [6]; [8]) | Herbicidal effect, B: Japanese bulrush (Japanese bulrush; [8]) | other results
1 | CCOc1cc(F)ccc1-c1sc2cc(OC)ccc2c1-c1c(O)c(C)nn(C)c1=O [3-078] |  |  |  |  |  |  |  |  |  |  |  |  |  |  |  |  |  | O: lambsquarters, herbicidal effect grade (lambsquarters; 80 g/ha): 5 (Herbicidal rate of 90% or more (almost completely withered)); N: redroot pigweed, herbicidal effect grade (redroot pigweed; [7]): 3 (Herbicidal rate of 40% or more and less than 70%); G: green foxtail, herbicidal effect grade (green foxtail; 80 g/ha): 4 (Herbicidal rate of 70% or more and less than 90%); herbicidal effect rating, C: oval-leafed pondweed (oval-leafed pondweed [1]; AAH 80 g/ha): 4 (Herbicidal rate of 70% or more and less than 90%); H: barnyard grass, herbicidal effect grade (barnyard grass; 80 g/ha): 5 (Herbicidal rate of 90% or more (almost completely withered)); R: persian speedwell, herbicidal effect grade (persian speedwell; [7]): 5 (Herbicidal rate of 90% or more (almost completely withered)); Q: false cleavers, herbicidal effect grade (false cleavers; [7]): 5 (Herbicidal rate of 90% or more (almost completely withered)); F: southern crabgrass, herbicidal effect grade (southern crabgrass [2]; 80 g/ha): 5 (Herbicidal rate of 90% or more (almost completely withered)); L: windgrass, herbicidal effect grade (windgrass [3]; [7]): 0 (Herbicidal rate of 5% or less (almost no effect)); herbicidal effect on Chinese sprangletop (D) (Chinese sprangletop; 80 g/ha): 3 (Herbicidal rate of 40% or more and less than 70%); F: southern crabgrass, herbicidal effect grade (southern crabgrass [4]; [7]): 4 (Herbicidal rate of 70% or more and less than 90%); L: windgrass, herbicidal effect grade (windgrass [5]; 80 g/ha): 5 (Herbicidal rate of 90% or more (almost completely withered)); Herbicidal effect, A: late watergrass (late watergrass; [7]): 5 (Herbicidal rate of 90% or more (almost completely withered)); herbicidal effect on rice flat sedge (E) (rice flat sedge; 80 g/ha): 5 (Herbicidal rate of 90% or more (almost completely withered)); I: wild oat, herbicidal effect grade (wild oat; 80 g/ha): 5 (Herbicidal rate of 90% or more (almost completely withered)); Herbicidal effect, C: oval-leafed pondweed (oval-leafed pondweed [6]; [7]): 4 (Herbicidal rate of 70% or more and less than 90%); Herbicidal effect, B: Japanese bulrush (Japanese bulrush; [7]): 5 (Herbicidal rate of 90% or more (almost completely withered))
2 | CCCC(=O)Oc1c(C)nn(C)c(=O)c1-c1c(-c2ccc(F)cc2OCC)sc2cc(OC)ccc12 [3-079] | 5 (Herbicidal rate of 90% or more (almost completely withered)) | 4 (Herbicidal rate of 70% or more and less than 90%) | 5 (Herbicidal rate of 90% or more (almost completely withered)) | 5 (Herbicidal rate of 90% or more (almost completely withered)) | 5 (Herbicidal rate of 90% or more (almost completely withered)) | 5 (Herbicidal rate of 90% or more (almost completely withered)) | 4 (Herbicidal rate of 70% or more and less than 90%) | 5 (Herbicidal rate of 90% or more (almost completely withered)) | 3 (Herbicidal rate of 40% or more and less than 70%) | 4 (Herbicidal rate of 70% or more and less than 90%) | 4 (Herbicidal rate of 70% or more and less than 90%) | 5 (Herbicidal rate of 90% or more (almost completely withered)) | 5 (Herbicidal rate of 90% or more (almost completely withered)) | 5 (Herbicidal rate of 90% or more (almost completely withered)) | 5 (Herbicidal rate of 90% or more (almost completely withered)) | 5 (Herbicidal rate of 90% or more (almost completely withered)) | 5 (Herbicidal rate of 90% or more (almost completely withered)) | 
3 | COc1ccc2c(-c3c(O)c(C)nn(C)c3=O)c(-c3ccc4c(c3)OCCO4)sc2c1 [3-082] | 5 (Herbicidal rate of 90% or more (almost completely withered)) | 3 (Herbicidal rate of 40% or more and less than 70%) | 3 (Herbicidal rate of 40% or more and less than 70%) | 3 (Herbicidal rate of 40% or more and less than 70%) | 3 (Herbicidal rate of 40% or more and less than 70%) | 5 (Herbicidal rate of 90% or more (almost completely withered)) | 5 (Herbicidal rate of 90% or more (almost completely withered)) | 0 (Herbicidal rate of 5% or less (almost no effect)) | 0 (Herbicidal rate of 5% or less (almost no effect)) | 3 (Herbicidal rate of 40% or more and less than 70%) | 0 (Herbicidal rate of 5% or less (almost no effect)) | 0 (Herbicidal rate of 5% or less (almost no effect)) | 3 (Herbicidal rate of 40% or more and less than 70%) | 5 (Herbicidal rate of 90% or more (almost completely withered)) | 0 (Herbicidal rate of 5% or less (almost no effect)) | 4 (Herbicidal rate of 70% or more and less than 90%) | 5 (Herbicidal rate of 90% or more (almost completely withered)) | 
4 | CCCC(=O)Oc1c(C)nn(C)c(=O)c1-c1c(-c2ccc3c(c2)OCCO3)sc2cc(OC)ccc12 [3-083] | 0 (Herbicidal rate of 5% or less (almost no effect)) | 0 (Herbicidal rate of 5% or less (almost no effect)) | 0 (Herbicidal rate of 5% or less (almost no effect)) | 4 (Herbicidal rate of 70% or more and less than 90%) | 2 (Herbicidal rate of 20% or more and less than 40%) | 5 (Herbicidal rate of 90% or more (almost completely withered)) | 4 (Herbicidal rate of 70% or more and less than 90%) | 3 (Herbicidal rate of 40% or more and less than 70%) | 0 (Herbicidal rate of 5% or less (almost no effect)) | 4 (Herbicidal rate of 70% or more and less than 90%) | 0 (Herbicidal rate of 5% or less (almost no effect)) | 0 (Herbicidal rate of 5% or less (almost no effect)) | 4 (Herbicidal rate of 70% or more and less than 90%) | 4 (Herbicidal rate of 70% or more and less than 90%) | 0 (Herbicidal rate of 5% or less (almost no effect)) | 4 (Herbicidal rate of 70% or more and less than 90%) | 4 (Herbicidal rate of 70% or more and less than 90%) | 
